# Assay results: patent US20060003988A1, “Compounds capable of inhibiting immunocyte-related allergic immune reactions” (priority 2002, published 2006)
# Counter-ions that a name gives are not always drawn.
# Tests used:
# [1] = in vivo; cited from earlier work
# [2] = test system: IL-6 production from peripheral blood T cells; assay: IL-6 production from peripheral blood T cells (ELISA); type: cell-based, human; settings: for effect on IL-6 production from T cells: each costimulation condition
# Description: (§1) The antibody-coated plates and T cells were prepared similarly as in Example 1 except that the OKT3 concentration was 0.5 μg/ml. The cytokine production by T cells was analyzed in triplicate using 96-well flat-bottomed plates by the same method employed in the T cell proliferation analysis described above. After culturing for 24 hours, the culture supernatant was tested using ELISA kit (IL-2: Biosource International, Camarillo, Calif.; IFN-γ: R&D systems, Minneapolis, Minn.) to quantify IL-2 and IFN-γ.
# (§2) The present inventors analyzed the effects of H1 blockers on the production of inflammatory cytokines, such as IL-6 and TNF-α, from T cells due to the various costimulation pathways described above. This analysis was performed similarly as in Example 2 above except for the use of an ELISA kit for measuring IL-6 and TNF-α (R&D systems, Minneapolis, Minn.).
# [3] = test system: IL-5 production from peripheral blood T cells; assay: IL-5 production from peripheral blood T cells (ELISA); type: cell-based, human; settings: for effect on IL-5 production: each costimulation condition, concentration-dependent
# Description: as §1
# (§3) Th2 type CD4 T cells play an important role in allergic diseases. […] This analysis was performed similarly as in Example 2 except that ELISA (IL-4: Biosource International, Camarillo, Calif.; IL-5: R&D systems, Minneapolis, Minn.) was used to quantify IL-4 and IL-5.
# [4] = test system: histamine-induced contraction in trachea samples; settings: trachea samples excised from guinea pigs; read-out: IC50 of the effects on histamine-induced contraction; cited from earlier work
# [5] = test system: IL-4 production from peripheral blood T cells; assay: IL-4 production from peripheral blood T cells (ELISA); type: cell-based, human
# Description: as §1, §3
# [6] = test system: TNF-α production from macrophages; assay: TNF-α production from macrophages upon LPS stimulation (ELISA); type: cell-based, human
# Description: (§4) Specifically, in order to produce IL-6 and THF-α from macrophages, peripheral blood mononuclear cells were adhered to a plastic plate to isolate and recover macrophages.
# [7] = test system: PHA-stimulated T cells; assay: Transendothelial migration of PHA-stimulated T cells through ECV304 monolayer; type: cell-based, human; settings: compound present during migration, eight hours
# Description: Since fresh resting-stage T cells hardly migrate by permeating a monolayer of endothelial cells, these T cells were activated using PHA (10 μg/ml) prior to performing transendothelial migration analysis.
# Specifically, the analysis of transendothelial migration was performed by slightly modifying a known method (Iwata S, Yamaguchi N, Munakata Y, Ikushima H, Lee J F, Hosono O, Schlossman S F, Morimoto C. “CD26/DPPIV differentially regulates the chemotaxis of T cells and monocytes toward RANTES. Possible mechanism for the switch from innate to acquired immune response.” Int Immunol. 11:417-426, 1999). Human endothelial cell strain ECV304 was obtained from the American Tissue Culture Collection (ATCC; Rockville, Md.) and cultured for 48 hours on Transwell cell culture inserts (Corning Costar, Cambridge, Mass.) with a pore size of 3.0 μm. The cells were loaded onto a 24-well plastic plate for cell culture (FALCON), and mixed with H1 blockers at various concentrations using Transwell assay medium (RPMI1640 medium, BSA 0.6%, Penicillin G/Streptomycin 1%, HEPES 50 mM). Two-hundred μl of PHA-stimulated T cells (1×10^7/ml) were then placed in the upper chamber and 600 μl of assay medium was placed in the lower chamber, and migration was performed for eight hours at 37° C. under 5% CO2. After recovery of the cells, the number of cells was counted for one minute by flow cytometry (FACSCalibur, Nippon Becton-Dickinson, Tokyo, Japan).
# [8] = test system: IL-6 production from macrophages; assay: IL-6 production from macrophages upon LPS stimulation (ELISA); type: cell-based, human
# Description: as §4
# [9] = test system: IL-2 production from peripheral blood T cells; assay: IL-2 production from peripheral blood T cells (ELISA); type: cell-based, human; settings: each costimulation condition; 24 hours; up to maximum concentration (10 μM ebastine, 100 μM carebastine)
# Description: (§5) In order to analyze whether or not H1 blockers have an inhibitory effect on cytokine production induced by the various costimulations described above, the present inventors measured Th1 type cytokines (IL-2, and IFN-γ) in the culture supernatant induced by the various costimulations described above.
# as §1
# [10] = test system: IFN-γ production from peripheral blood T cells; assay: IFN-γ production from peripheral blood T cells (ELISA); type: cell-based, human; settings: each costimulation condition; 24 hours; ebastine 0.1 μM to 10 μM, carebastine 1 μM to 100 μM
# Description: as §5, §1
# [11] = test system: TNF-α production from peripheral blood T cells; assay: TNF-α production from peripheral blood T cells (ELISA); type: cell-based, human; settings: for effect on TNF-α production from T cells: each costimulation condition
# Description: as §1, §2
# [12] = dose increased to five times from that used for the treatment; cited from earlier work
# [13] = test system: PHA-stimulated T cells; assay: Adhesion of PHA-stimulated T cells to endothelial cells (fluorescence microscopy); settings: 1.0 μM to 5.0 μM; six hours; dose-dependent
# Description: After six hours, the culture dish was washed three times with PBS.
# [14] = target: T1, H2 receptors (Homo sapiens, UniProt P25021); settings: read-out: IC50 in the inhibition of ligand binding to H2 receptors; cited from earlier work
# [15] = target: human recombinant H1 receptors (Homo sapiens, UniProt P35367); settings: read-out: IC50 of inhibiting ligand binding to H1 receptors; cited from earlier work
# [16] = according to the Interview Form; cited from earlier work
# [17] = test system: T cells; assay: T cell proliferation (3H-thymidine incorporation) via different costimulation pathways; type: cell-based, human; settings: stimulation on CD3 combined with CD26, CD28 or PMA; all concentrations used
# Description: The first pathway was PMA, the second pathway stimulation on CD28 that is one of the representative T cell costimulation molecules, and the third pathway stimulation on CD26 that is expressed on CD4^+ memory T cells. The simulation on CD3 was applied together with all of these stimulations. The stimulation on CD3, CD26, and CD28 was performed using monoclonal antibodies OKT3, 1F7 (Morimoto C et al., 1989, supra), and 4B10 (immi CD et al., 1991, supra), respectively. OKT3 was purchased from the American Tissue Culture Collection (ATCC, Rockville, Md.), while 4B10 and 1F7 were purified from mouse ascites of hybridomas established in the present inventors' laboratory (Gimmi C D et al., 1991, supra; Morimoto C et al., 1989, supra). […]
# Phosphate-buffer saline (PBS) (100 μl) containing either one of the monoclonal antibodies, OKT3 (0.05 μg/ml), 1F7 (1 μg/ml), or 4B10 (2 μg/ml), was coated in triplicate according to a known method (Dang N H et al., 1990, supra) on flat-bottomed 96-well plates (Coster, Cambridge, Mass.), and the plates were then incubated overnight at 4° C. […] The cells were stimulated for eight hours with 1 μCi ^3H-thymidine (ICN Radiochemicals, Irvine, Calif.) per well, recovered on a glass fiber filter (Wallac, Turku, Finland) to quantify the incorporated radioactivity with a liquid scintillation counter (Wallac).
# [18] = target: T1, H2 receptors; settings: at maximum concentration; cited from earlier work
# [19] = each costimulation condition, concentration-dependent
# T1 sequence (P25021 whole entry): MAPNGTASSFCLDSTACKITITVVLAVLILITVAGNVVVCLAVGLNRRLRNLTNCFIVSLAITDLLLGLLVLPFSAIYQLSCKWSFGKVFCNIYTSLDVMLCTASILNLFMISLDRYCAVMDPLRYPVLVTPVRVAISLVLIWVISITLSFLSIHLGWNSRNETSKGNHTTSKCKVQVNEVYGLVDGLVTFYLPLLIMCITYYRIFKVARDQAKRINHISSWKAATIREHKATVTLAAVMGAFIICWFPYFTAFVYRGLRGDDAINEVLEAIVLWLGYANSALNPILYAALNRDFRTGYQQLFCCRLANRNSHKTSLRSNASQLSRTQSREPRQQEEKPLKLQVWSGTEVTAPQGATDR
# Chain of human recombinant H1 receptors (P35367 whole entry): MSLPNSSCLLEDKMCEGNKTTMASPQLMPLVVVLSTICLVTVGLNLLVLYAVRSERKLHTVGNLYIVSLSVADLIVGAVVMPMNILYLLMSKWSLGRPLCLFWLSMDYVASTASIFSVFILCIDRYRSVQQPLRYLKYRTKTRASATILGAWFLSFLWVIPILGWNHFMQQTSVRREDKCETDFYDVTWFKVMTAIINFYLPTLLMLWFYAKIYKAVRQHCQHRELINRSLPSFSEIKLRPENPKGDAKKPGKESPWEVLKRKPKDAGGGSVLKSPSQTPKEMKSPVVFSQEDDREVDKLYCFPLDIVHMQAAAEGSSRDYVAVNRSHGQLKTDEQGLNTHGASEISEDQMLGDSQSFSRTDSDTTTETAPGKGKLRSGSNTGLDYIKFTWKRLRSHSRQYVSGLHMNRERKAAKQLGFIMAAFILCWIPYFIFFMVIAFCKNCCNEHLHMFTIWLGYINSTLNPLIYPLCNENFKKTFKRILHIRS
Compound,maximum blood concentration [1] [µM],effect on IL-6 production from T cells [2],effect on IL-5 production [3],IC50 [4] [nM],"effect on IL-4 production [5, 19]",effect on TNF-α production from macrophages ([6]; eight hours),effect on T cell migration [7],effect on IL-6 production from macrophages ([8]; eight hours),effect on IL-2 production [9],effect on IFN-γ production [10],effect on TNF-α production from T cells [11],IC50 [14] [nM],also measured
"CC(C)(C(=O)O)c1ccc(C(=O)CCCN2CCC(OC(c3ccccc3)c3ccccc3)CC2)cc1 [carebastine, 4-[4-[4-(di-phenylmethoxy)-1-piperidinyl]-1-oxobutyl]-α, α-di-methylbenzeneacetic acid]",0.1,inhibited,inhibited,120,inhibited,suppressed,suppressed,suppressed,did not inhibit,did not have a clear effect,inhibited,–,–
O=C(O)COCCN1CCN(C(c2ccccc2)c2ccc(Cl)cc2)CC1 (centres unmarked) [cetirizine hydrochloride],–,did not have a clear effect,did not have a clear effect,–,did not have a clear effect,no inhibition,–,no inhibition,did not have a clear effect,did not have a clear effect,did not have a clear effect,–,–
"CC(C)(C)c1ccc(C(=O)CCCN2CCC(OC(c3ccccc3)c3ccccc3)CC2)cc1 [ebastine, 4-diphenylmethoxy-1[3-(4-terbutyl-benzoyl)-propyl]piperidine]",–,inhibited,inhibited,–,inhibited,suppressed,–,suppressed,did not inhibit,did not have a clear effect,inhibited,–,"suppression of IL-6 production from T cells ([2]; 10 μM to 20 μM): 100%; suppression of IL-5 production ([3]; 20 μM, all donors): 100%; effect on IL-4 production ([5]; 10 μM): nearly completely inhibited; suppression of IL-4 production ([5]; 20 μM, all donors): 100%; suppression of TNF-α production from macrophages ([6]; 1 μM): ≥ 50%; effect on TNF-α production from macrophages ([6]; 10 μM): nearly completely inhibited; suppression of IL-6 production from macrophages ([8]; 1 μM): ≥ 50%; effect on IL-6 production from macrophages ([8]; 10 μM): nearly completely inhibited; suppression of TNF-α production from T cells ([11]; 10 μM to 20 μM): 100%; effect on QT interval [12]: not to affect; adhesion of PHA-stimulated T cells to endothelial cells [13]: suppress"
"NC1=NCC2c3ccccc3Cc3ccccc3N12 (centres unmarked) [epinastine hydrochloride, 3-amino-9,13b-dihydro-1H-dibenz(c,f)imidazol(1,5-a)azepine hydro-chloride]",0.1,no clear effect,inhibited,–,inhibited,no inhibition,did not have a clear effect,no inhibition,suppressed,suppressed,no clear effect,640 ± 62,IC50 [15]: 1.1 ± 0.16 nM; efficacy in the improvement of bronchial asthma to a medium degree or greater [16]: 47.0%
CN1CCC(=C2c3ccccc3CC(=O)c3sccc32)CC1 [ketotifen fumarate],0.01,did not have a clear effect,did not have a clear effect,2.5,did not have a clear effect,no inhibition,did not have a clear effect,no inhibition,did not have a clear effect,did not have a clear effect,did not have a clear effect,2200 ± 450,effect on T cell proliferation [17]: hardly inhibited
CC(C)(C)c1ccc(C(O)CCCN2CCC(C(O)(c3ccccc3)c3ccccc3)CC2)cc1 (centres unmarked) [terfenadine],–,–,–,–,–,–,–,–,–,–,–,–,inhibition rate to [3H]-tiotidine [18]: 29%
